According to the NIST ThermoML archive (doi:10.1021/je500594z):
Numbers after ± are expanded uncertainties.

What was measured:
[1] = xn = mol fraction of the nth substance listed; settings: 101 kPa, Liquid, x2 = 0; for viscosity: Falling or rolling sphere viscometry; for speed of sound: Sing-around technique in a fixed-path interferometer; for mass density: Vibrating tube method
[2] = 101 kPa, Liquid; for viscosity: Falling or rolling sphere viscometry; for speed of sound: Sing-around technique in a fixed-path interferometer; for mass density: Vibrating tube method

Compound: CCO [ethanol] + CCCC[n+]1ccn(C)c1.O=S(=O)([N-]S(=O)(=O)C(F)(F)F)C(F)(F)F
- viscosity ([1]; 278.15 K): 1.59 ± 0.01 mPa·s
- speed of sound ([1]; 278.15 K): 1212.9 ± 0.64 m/s
- mass density ([1]; 278.15 K): 802.39 ± 0.11 kg/m3
- viscosity ([1]; 298.15 K): 1.08 ± 0.01 mPa·s
- speed of sound ([1]; 298.15 K): 1143.1 ± 0.61 m/s
- mass density ([1]; 298.15 K): 785.32 ± 0.12 kg/m3
- viscosity ([1]; 318.15 K): 0.77 ± 0.01 mPa·s
- speed of sound ([1]; 318.15 K): 1075.7 ± 0.58 m/s
- mass density ([1]; 318.15 K): 767.84 ± 0.12 kg/m3
- viscosity ([1]; 338.15 K): 0.56 ± 0.01 mPa·s
- speed of sound ([1]; 338.15 K): 1009.4 ± 0.56 m/s
- mass density ([1]; 338.15 K): 749.54 ± 0.13 kg/m3

Compound: CCCCCC[n+]1ccn(C)c1.O=S(=O)([N-]S(=O)(=O)C(F)(F)F)C(F)(F)F
- viscosity ([2]; 278.15 K): 211.31 ± 10 mPa·s
- speed of sound ([2]; 278.15 K): 1274.6 ± 0.66 m/s
- mass density ([2]; 278.15 K): 1390.3 ± 0.19 kg/m3
- viscosity ([2]; 298.15 K): 70.46 ± 0.82 mPa·s
- speed of sound ([2]; 298.15 K): 1226.8 ± 0.64 m/s
- mass density ([2]; 298.15 K): 1371.64 ± 0.18 kg/m3
- viscosity ([2]; 318.15 K): 30.22 ± 0.24 mPa·s
- speed of sound ([2]; 318.15 K): 1182 ± 0.62 m/s
- mass density ([2]; 318.15 K): 1353.31 ± 0.17 kg/m3
- speed of sound ([2]; 338.15 K): 1139.3 ± 0.61 m/s
- mass density ([2]; 338.15 K): 1335.25 ± 0.17 kg/m3

Compound: CCO [ethanol] + CCCCCC[n+]1ccn(C)c1.O=S(=O)([N-]S(=O)(=O)C(F)(F)F)C(F)(F)F
- viscosity ([1]; 278.15 K): 1.59 ± 0.01 mPa·s
- speed of sound ([1]; 278.15 K): 1212.9 ± 0.64 m/s
- mass density ([1]; 278.15 K): 802.39 ± 0.11 kg/m3
- viscosity ([1]; 298.15 K): 1.08 ± 0.01 mPa·s
- speed of sound ([1]; 298.15 K): 1143.1 ± 0.61 m/s
- mass density ([1]; 298.15 K): 785.32 ± 0.12 kg/m3
- viscosity ([1]; 318.15 K): 0.77 ± 0.01 mPa·s
- speed of sound ([1]; 318.15 K): 1075.7 ± 0.58 m/s
- mass density ([1]; 318.15 K): 767.84 ± 0.12 kg/m3
- speed of sound ([1]; 338.15 K): 1009.4 ± 0.56 m/s
- mass density ([1]; 338.15 K): 749.54 ± 0.13 kg/m3

Compound: CCCC[n+]1ccn(C)c1.O=S(=O)([N-]S(=O)(=O)C(F)(F)F)C(F)(F)F
- viscosity ([2]; 278.15 K): 139.82 ± 4.8 mPa·s
- speed of sound ([2]; 278.15 K): 1273.8 ± 0.66 m/s
- mass density ([2]; 278.15 K): 1453.69 ± 0.21 kg/m3
- viscosity ([2]; 298.15 K): 51.22 ± 0.12 mPa·s
- speed of sound ([2]; 298.15 K): 1227.5 ± 0.64 m/s
- mass density ([2]; 298.15 K): 1434.23 ± 0.21 kg/m3
- viscosity ([2]; 318.15 K): 24.36 ± 0.19 mPa·s
- speed of sound ([2]; 318.15 K): 1184 ± 0.62 m/s
- mass density ([2]; 318.15 K): 1415.13 ± 0.2 kg/m3
- viscosity ([2]; 338.15 K): 13.94 ± 0.11 mPa·s
- speed of sound ([2]; 338.15 K): 1142.7 ± 0.61 m/s
- mass density ([2]; 338.15 K): 1396.35 ± 0.19 kg/m3

Compound: CCn1cc[n+](C)c1.O=S(=O)([N-]S(=O)(=O)C(F)(F)F)C(F)(F)F
- viscosity ([2]; 278.15 K): 75.08 ± 1 mPa·s
- speed of sound ([2]; 278.15 K): 1284.9 ± 0.66 m/s
- mass density ([2]; 278.15 K): 1538.23 ± 0.25 kg/m3
- viscosity ([2]; 298.15 K): 32.02 ± 0.25 mPa·s
- speed of sound ([2]; 298.15 K): 1240.1 ± 0.64 m/s
- mass density ([2]; 298.15 K): 1517.76 ± 0.24 kg/m3
- viscosity ([2]; 318.15 K): 17.32 ± 0.14 mPa·s
- speed of sound ([2]; 318.15 K): 1196.6 ± 0.63 m/s
- mass density ([2]; 318.15 K): 1497.65 ± 0.23 kg/m3
- viscosity ([2]; 338.15 K): 10.82 ± 0.08 mPa·s
- speed of sound ([2]; 338.15 K): 1155.8 ± 0.61 m/s
- mass density ([2]; 338.15 K): 1477.86 ± 0.22 kg/m3

Compound: CCO [ethanol] + CCn1cc[n+](C)c1.O=S(=O)([N-]S(=O)(=O)C(F)(F)F)C(F)(F)F
- viscosity ([1]; 278.15 K): 1.59 ± 0.01 mPa·s
- speed of sound ([1]; 278.15 K): 1212.9 ± 0.64 m/s
- mass density ([1]; 278.15 K): 802.39 ± 0.11 kg/m3
- viscosity ([1]; 298.15 K): 1.08 ± 0.01 mPa·s
- speed of sound ([1]; 298.15 K): 1143.1 ± 0.61 m/s
- mass density ([1]; 298.15 K): 785.32 ± 0.12 kg/m3
- viscosity ([1]; 318.15 K): 0.77 ± 0.01 mPa·s
- speed of sound ([1]; 318.15 K): 1075.7 ± 0.58 m/s
- mass density ([1]; 318.15 K): 767.84 ± 0.12 kg/m3
- viscosity ([1]; 338.15 K): 0.56 ± 0.01 mPa·s
- speed of sound ([1]; 338.15 K): 1009.4 ± 0.56 m/s
- mass density ([1]; 338.15 K): 749.54 ± 0.13 kg/m3

Compound: CCO [ethanol]
- viscosity ([2]; 278.15 K): 1.59 ± 0.01 mPa·s
- speed of sound ([2]; 278.15 K): 1212.9 ± 0.64 m/s
- mass density ([2]; 278.15 K): 802.39 ± 0.11 kg/m3
- viscosity ([2]; 298.15 K): 1.08 ± 0.01 mPa·s
- speed of sound ([2]; 298.15 K): 1143.1 ± 0.61 m/s
- mass density ([2]; 298.15 K): 785.32 ± 0.12 kg/m3
- viscosity ([2]; 318.15 K): 0.77 ± 0.01 mPa·s
- speed of sound ([2]; 318.15 K): 1075.7 ± 0.58 m/s
- mass density ([2]; 318.15 K): 767.84 ± 0.12 kg/m3
- viscosity ([2]; 338.15 K): 0.56 ± 0.01 mPa·s
- speed of sound ([2]; 338.15 K): 1009.4 ± 0.56 m/s
- mass density ([2]; 338.15 K): 749.54 ± 0.13 kg/m3
